Publication PMC6523444, “Antioxidant Activities of Alkyl Substituted Pyrazine Derivatives of Chalcones—In Vitro and In Silico Study” (Antioxidants, 2019)

Legend:
[1] = MTS cytotoxicity assay, overnight, HepG2; format: cell-based; conditions: human, HepG2 cells, concentration range 100–0.2 µM
Description: (§1) Adherent liver hepatocellular carcinoma cell line HepG2 (ATCC, HB-8065) and human acute monocytic leukemia cell line in suspension THP-1 (ATCC, TIB-202) were purchased from American Type Culture Collection (ATCC, Manassas, VA, USA). Cell lines were maintained in complete DMEM/F12 medium (Sigma, D8437, St. Louis, MO, USA) and complete RPMI1640 (Sigma, R7388, St. Louis, MO, USA) respectively, supplemented with 10% Fetal Calf Serum (FCS, Sigma, F7524, St. Louis, MO, USA) at 37 °C in 5% CO2 atmosphere.
(§2) A cytotoxicity assay was performed using MTS CellTiter 96 AQueous One Solution Cell Proliferation Assay (Promega, G3580, Madison, WI, USA). Double dilutions of compounds were prepared in the concentration range of 100–0.2 µM within microplate wells. In each well, 5 × 10^4 cells were added and the plates were incubated overnight at 37 °C in 5% CO2 atmosphere. Following this, 10 µL of MTS (3-(4,5-dimethylthiazol-2-yl)-5-(3-carboxymethoxyphenyl)-2-(4-sulfophenyl)-2H -tetrazolium) reagent was dispensed per well and the plates were incubated for 1–6 h at 37 °C in 5% CO2 atmosphere. Control wells consisted of media only (blank) or cells with 1% DMSO added (control). The absorbance was recorded at 490 nm using a Wallac Victor2 microplate reader (PerkinElmer, Waltham, MA, USA). Results were analyzed in GraphPad Prism software (GraphPad Software, San Diego, CA, USA).

[2] = MTS cytotoxicity assay, overnight, THP-1; format: cell-based, human; conditions: human, THP-1 cells, overnight, concentration range 100–0.2 µM
Description: as §1, §2

THP-1 = experiment: MTS cytotoxicity assay, overnight, THP-1; format: cell-based, human; conditions: up to 100 μM overnight
Description: as §1, §2

[3] = DPPH• radical scavenging assay; conditions: 100 µM DPPH•, 30 min, room temperature, dark; read-out: DPPH● radical scavenging (RS) activity IC50
Description: Vitamin C (Acros Organics, Geel, Belgium) was used as a standard antioxidant control and was prepared in the same way as tested compounds. Dilutions of tested compounds and vitamin C were prepared in a final concentration range of 1 mM–0.01 μM. One milliliter of compound solution was added to 1 mL of freshly prepared DPPH• solution (3.9 mg/50 mL ethanol; final concentration of 100 µM) and the reaction mixture was incubated in the dark at room temperature for 30 min. Absorbance was recorded at 540 nm using a 96-well Wallac Victor2 plate reader. Neutralization of DPPH• radical by a compound was calculated according to the following formula:RS activity (%) = [(A0 − A1)/A0] × 100(1) where A0/A1 is the control/sample absorbance. The results were averages of three measurements. The IC50 value was calculated using GraphPad Prism software (GraphPad Software, San Diego, CA, USA).

[4] = test system: THP-1 cells treated by H2O2; experiment: Growth of THP-1 cells pre- or post-treated with H2O2, trypan blue exclusion assay; format: cell-based, human; conditions: for Effect against cytotoxic / pro-oxidative activity of H2O2 on THP-1 cells: compound at DPPH• IC50 concentration, before or after 5 mM H2O2; for Recovery of THP-1 cells after initial damage: from the 48 h point, H2O2 plus compound
Description: The substances without cytotoxic effects and with RS activity were tested for antioxidant potential at the cellular level using THP-1 cells treated by H2O2 [28]. The cells were exposed to the IC50 concentrations of the compounds determined by the DPPH• assay. Compounds were applied 30 min either before or after exposure to 5 mM of H2O2, which is equivalent to the cytotoxic ED50 dose of H2O2 for the THP-1 cells. The cell growth was analyzed every 24 h, via the trypan blue exclusion assay using a Bürker-Türk hemocytometer (Brand GMBH + CO KG, Wertheim, Germany), during a 4-day period. All assays were carried out in triplicates. The comparison of mean values was done by the two-tailed Student’s t-test.

aldose reductase ALR2 = test system: aldose reductase ALR2; set-up: method as in doi:10.1007/s00706-018-2146-6; conditions: cited from earlier work
[5] = test system: cell lines A549, PC3, MCF-7, HT-29 and WRL68; set-up: method as in PMID 22634834; conditions: cited from earlier work
[6] = set-up: method as in doi:10.1627/jpi.51.298; conditions: oxygen atmosphere, 50 °C, compared with para-coumaric acid fragment; cited from earlier work
THP-1 cells = conditions: cited from earlier work

Row | Structure (SMILES) | IC50 [1] [µM] | IC50 [2] [µM] | IC50 [3] [µM] | further results
1 | CC(C)Cc1cnc(C(=O)/C=C/c2ccc(O)cc2)cn1 [Compound 3e] | > 100 | > 100 | – | –
2 | COc1cc(/C=C/C(=O)c2cnc(C(C)(C)C)cn2)ccc1O [Compound 4f] | > 100 | 36 | – | –
3 | CC(C)Cc1cnc(C(=O)/C=C/c2cccc(O)c2)cn1 [Compound 2e] | > 100 | > 100 | – | –
4 | CC(C)(C)c1cnc(C(=O)/C=C/c2cccc(O)c2)cn1 [Compound 2f] | > 100 | > 100 | – | –
5 | CC(C)Cc1cnc(C(=O)/C=C/c2ccccc2O)cn1 [Compound 1e] | > 100 | 94 | – | –
6 | COc1cc(/C=C/C(=O)c2cnc(C(C)C)cn2)ccc1O [Compound 4c] | > 100 | > 100 | 39 | Cytotoxicity on THP-1 cells, in words (THP-1): non-toxic; Attenuation of H2O2 effect on THP-1 cells, compound added before H2O2 ([4]; compound at DPPH• IC50 concentration 30 min before 5 mM H2O2, 4 days): most efficient reduction of cytotoxic effect of H2O2; Effect against cytotoxic / pro-oxidative activity of H2O2 on THP-1 cells [4]: greater attenuation of H2O2 effects; Recovery of THP-1 cells after initial damage [4]: considerably greater
7 | CC(C)(C)c1cnc(C(=O)/C=C/c2ccccc2O)cn1 [Compound 1f] | > 100 | > 100 | – | –
8 | O=C(/C=C/c1ccc(O)cc1)c1ccccc1 [Compound 3] | > 100 | > 100 | > 1000 | ALR2 inhibition activity (aldose reductase ALR2): comparable ALR2 inhibition; Cytotoxicity against A549, PC3, MCF-7, HT-29 and WRL68 [5]: significant cytotoxicity
9 | CC(C)c1cnc(C(=O)/C=C/c2cccc(O)c2)cn1 [Compound 2c] | 97 | 83 | > 1000 | –
10 | O=C(/C=C/c1ccccc1O)c1cnccn1 [Compound 1a] | > 100 | 40 | > 1000 | RS activity in styrene auto-oxidation [6]: significant RS activity
11 | O=C(/C=C/c1ccc(O)cc1)c1cnccn1 [Compound 3a] | > 100 | 97 | > 1000 | ALR2 inhibition activity (aldose reductase ALR2): moderate ALR2 inhibition activity; RS activity in styrene auto-oxidation [6]: significant RS activity
12 | CC(C)c1cnc(C(=O)/C=C/c2ccccc2O)cn1 [Compound 1c] | > 100 | 96 | > 1000 | –
13 | CCCCc1cnc(C(=O)/C=C/c2ccccc2O)cn1 [Compound 1d] | 86 | 27 | > 1000 | –
14 | CCCCc1cnc(C(=O)/C=C/c2cccc(O)c2)cn1 [Compound 2d] | > 100 | 67 | > 1000 | –
15 | CCCc1cnc(C(=O)/C=C/c2cccc(O)c2)cn1 [Compound 2b] | > 100 | 48 | – | –
16 | CC(C)c1cnc(C(=O)/C=C/c2ccc(O)cc2)cn1 [Compound 3c] | > 100 | 78 | > 1000 | –
17 | CCCc1cnc(C(=O)/C=C/c2ccc(O)cc2)cn1 [Compound 3b] | > 100 | 94 | – | –
18 | COc1cc(/C=C/C(=O)c2ccccc2)ccc1O [Compound 4] | > 100 | > 100 | – | –
19 | O=C(/C=C/c1ccccc1O)c1ccccc1 [Compound 1] | > 100 | 70 | > 1000 | –
20 | CC(C)(C)c1cnc(C(=O)/C=C/c2ccc(O)cc2)cn1 [Compound 3f] | > 100 | > 100 | – | –
21 | O=C(/C=C/c1cccc(O)c1)c1cnccn1 [Compound 2a] | 100 | 50 | > 1000 | ALR2 inhibition activity (aldose reductase ALR2): moderate ALR2 inhibition activity
22 | O=C(/C=C/c1cccc(O)c1)c1ccccc1 [Compound 2] | > 100 | 51 | > 1000 | –
23 | CCCCc1cnc(C(=O)/C=C/c2ccc(O)cc2)cn1 [Compound 3d] | > 100 | 83 | > 1000 | –
24 | COc1cc(/C=C/C(=O)c2cnc(CC(C)C)cn2)ccc1O [Compound 4e] | > 100 | > 100 | 46 | Cytotoxicity on THP-1 cells, in words (THP-1): non-toxic; Effect of the pure substance on the growth of THP-1 cells ([4]; compound alone at its DPPH• IC50 concentration, 96 h, Figure 2a): no considerable effects; Effect against cytotoxic / pro-oxidative activity of H2O2 on THP-1 cells [4]: greater attenuation of H2O2 effects; Recovery of THP-1 cells after initial damage [4]: considerably greater
25 | OO [Compound H2O2, hydrogen peroxide] | – | – | – | Cytotoxic ED50 dose for THP-1 cells (THP-1 cells): 5000 µM
26 | COc1cc(/C=C/C(=O)c2cnccn2)ccc1O [Compound 4a] | > 100 | > 100 | 186 | Cytotoxicity on THP-1 cells, in words (THP-1): non-toxic; Effect against cytotoxic / pro-oxidative activity of H2O2 on THP-1 cells [4]: lowest effect; RS activity in styrene auto-oxidation [6]: significant RS activity
27 | CCCc1cnc(C(=O)/C=C/c2ccccc2O)cn1 [Compound 1b] | > 100 | > 100 | – | –
